Patent publication US7491723B2, “Alkanol and cycloalkanol-amine derivatives and methods of their use” (Wyeth, priority 2003, dated 2009)
Where a name gives a salt, the structure may show the parent alone.

Target: T1, human hNET (Homo sapiens, UniProt P23975)
T1 construct: expressed in transfected cells
Assay: Norepinephrine (NE) uptake assay in MDCK-Net6 cells
Assay type: cell-based
Conditions: 1 μM test compound, [3H]NE uptake
Method: MDCK-Net6 cells, stably transfected with human hNET (Pacholczyk, T., R. D. Blakely, and S. G. Amara, Nature, 1991, 350(6316): p. 350-4) were cultured in growth medium containing high glucose DMEM (Gibco, Cat. No. 11995), 10% FBS (dialyzed, heat-inactivated, US Bio-Technologies, Lot FBD1129HI) and 500 μg/ml G418 (Gibco, Cat. No. 10131). Cells were plated at 300,000/T75 flask and cells were split twice weekly. The JAR cell line (human placental choriocarcinoma) was purchased from ATCC (Cat. No. HTB-144). The cells were cultured in growth medium containing RPMI 1640 (Gibco, Cat. No. 72400), 10% FBS (Irvine, Cat. No. 3000), 1% sodium pyruvate (Gibco, Cat. No. 1136) and 0.25% glucose. Cells were plated at 250,000 cells/T75 flask and split twice weekly. For all assays, cells were plated in Wallac 96-well sterile plates (PerkinElmer, Cat. No. 3983498).
On day 1, cells were plated at 3,000 cells/well in growth medium and maintained in a cell incubator (37° C., 5% CO2). On day 2, growth medium was replaced with 200 μl of assay buffer (25 mM HEPES; 120 mM NaCl; 5 mM KCl; 2.5 mM CaCl2; 1.2 mM MgSO4; 2 mg/ml glucose (pH 7.4, 37° C.)) containing 0.2 mg/ml ascorbic acid and 10 μM pargyline. Plates containing cells with 200 μl of assay buffer were equilibrated for 10 minutes at 37° C. prior to addition of compounds. A stock solution of desipramine was prepared in DMSO (10 mM) and delivered to triplicate wells containing cells for a final test concentration of 1 μM. Data from these wells were used to define non-specific NE uptake (minimum NE uptake). Test compounds were prepared in DMSO (10 mM) and diluted in assay buffer according to test range (1 to 10,000 nM). Twenty-five microliters of assay buffer (maximum NE uptake) or test compound were added directly to triplicate wells containing cells in 200 μl of assay buffer. The cells in assay buffer with test compounds were incubated for 20 minutes at 37° C. To initiate the NE uptake, [^3H]NE diluted in assay buffer (120 nM final assay concentration) was delivered in 25 μl aliquots to each well and the plates were incubated for 5 minutes (37° C.). The reaction was terminated by decanting the supernatant from the plate. The plates containing cells were washed twice with 200 μl assay buffer (37° C.) to remove free radioligand. The plates were then inverted, left to dry for 2 minutes, then reinverted and air-dried for an additional 10 minutes. The cells were lysed in 25 μl of 0.25 N NaOH solution (4° C.), placed on a shake table and vigorously shaken for 5 minutes. After cell lysis, 75 μl of scintillation cocktail was added to each well and the plates were sealed with film tape. The plates were returned to the shake table and vigorously shaken for a minimum of 10 minutes to ensure adequate partitioning of organic and aqueous solutions. The plates were counted in a Wallac Microbeta counter (PerkinElmer) to collect the raw cpm data.
For each experiment, a data stream of cpm values collected from the Wallac Microbeta counter was downloaded to a Microsoft Excel statistical application program. Calculations of EC50 values were made using the transformed-both-sides logistic dose response program written by Wyeth Biometrics Department. The statistical program uses mean cpm values from wells representing maximum binding or uptake (assay buffer) and mean cpm values from wells representing minimum binding or uptake ((1 μM desipramine (hNET) or 1 μM paroxetine (hSERT)). Estimation of the EC50 value was completed on a log scale and the line was fit between the maximum and minimum binding or uptake values. All graphic data representation was generated by normalizing each data point to a mean percent based on the maximum and minimum binding or uptake values. The EC50 values reported from multiple experiments were calculated by pooling the raw data from each experiment and analyzing the pooled data as one experiment.

T1 sequence (P23975 whole entry): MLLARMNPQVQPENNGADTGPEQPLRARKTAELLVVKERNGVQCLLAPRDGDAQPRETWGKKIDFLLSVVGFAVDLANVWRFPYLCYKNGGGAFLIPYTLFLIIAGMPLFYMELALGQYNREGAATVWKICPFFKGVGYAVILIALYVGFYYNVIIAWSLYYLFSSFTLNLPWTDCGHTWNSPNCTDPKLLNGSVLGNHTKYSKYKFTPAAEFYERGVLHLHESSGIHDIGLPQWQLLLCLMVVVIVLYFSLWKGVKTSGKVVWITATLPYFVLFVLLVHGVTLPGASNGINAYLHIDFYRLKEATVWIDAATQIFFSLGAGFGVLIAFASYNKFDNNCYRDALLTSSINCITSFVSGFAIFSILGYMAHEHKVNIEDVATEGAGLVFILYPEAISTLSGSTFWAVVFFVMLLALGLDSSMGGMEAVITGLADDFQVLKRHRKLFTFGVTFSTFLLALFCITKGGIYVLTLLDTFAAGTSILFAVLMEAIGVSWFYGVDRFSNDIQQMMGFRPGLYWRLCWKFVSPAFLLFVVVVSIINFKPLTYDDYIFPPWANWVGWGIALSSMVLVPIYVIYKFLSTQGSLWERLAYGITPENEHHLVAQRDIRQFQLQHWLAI

Row | inhibition at 1 µM [%] | SMILES
1 | 49.5 | CC1CCC(O)(C(CN2CCN(C)CC2)c2cccc(Cl)c2)CC1 (stereo not shown) [Example 335, 1-[1-(3-chlorophenyl)-2-(4-methylpiperazin-1-yl)ethyl]-4-methylcyclohexanol dihydrochloride]
2 | 31 | OC1(C(CN2CCNCC2)c2cccc(Cl)c2)CCOCC1 (stereo not shown) [Example 77, 4-[1-(3-chlorophenyl)-2-piperazin-1-ylethyl]tetrahydro-2H-pyran-4-ol dihydrochloride]
3 | 22 | CN1CCN(CC(c2cccc(Cl)c2)C2(O)CCOCC2)CC1 (stereo not shown) [Example 78, 4-[1-(3-chlorophenyl)-2-(4-methylpiperazin-1-yl)ethyl]tetrahydro-2H-pyran-4-ol dihydrochloride]
4 | 88.3 | Clc1cccc(C(CN2CCNCC2)C2CCCCC2)c1 (stereo not shown) [Example 230, 1-[2-(3-chlorophenyl)-2-cyclohexylethyl]piperazine dihydrochloride]
5 | 18 | COc1ccc(C(CN2CCNCC2)C2(O)CCC(C(C)(C)C)CC2)cc1Br (stereo not shown) [Example 84, 1-[1-(3-bromo-4-methoxyphenyl)-2-piperazin-1-ylethyl]4-tert-butylcyclohexanol dihydrochloride]
6 | 89 | CCC(O)(CC)C(CN1CCNCC1)c1cccc(Br)c1 (stereo not shown) [Example 50, 2-(3-bromophenyl)-3-ethyl-1-piperazin-1-ylpentan-3-ol dihydrochloride]
7 | 35 | CN1CCC(O)(C(CN2CCNCC2)c2cccc(Br)c2)CC1 (stereo not shown) [Example 58, 4-[1-(3-bromophenyl)-2-piperazin-1-ylethyl]-1-methylpiperidin-4-ol dihydrochloride]
8 | 31 | CC(C)(O)C(CN1CCNCC1)c1cccc(Cl)c1 (stereo not shown) [Example 275, 3-(3-chlorophenyl)-2-methyl-4-piperazin-1-ylbutan-2-ol dihydrochloride]
9 | 48.2 | CN1CCN(CC(c2cccc(Cl)c2)C2CCCC2)CC1 (stereo not shown) [Example 227, 1-[2-(3-chlorophenyl)-2-cyclopentylethyl]-4-methylpiperazine dihydrochloride]
10 | 44 | CCCC(O)(CCC)C(CN1CCNCC1)c1cccc(Cl)c1 (stereo not shown) [Example 51, 4-[1-(3-chlorophenyl)-2-piperazin-1-ylethyl]heptan-4-ol dihydrochloride]
11 | 53 | Clc1cccc(C(CN2CCNCC2)C2CCCC2)c1 (stereo not shown) [Example 226, 1-[2-(3-chlorophenyl)-2-cyclopentylethyl]piperazine dihydrochloride]
12 | 41 | CN1CCN(CC(c2cccc(Cl)c2)C2(O)CCC3CCCCC3C2)CC1 (stereo not shown) [Example 332, 2-[1-(3-chlorophenyl)-2-(4-methypiperazin-1-yl)ethyl]decahydronaphthalen-2-ol dihydrochloride]
13 | 57 | CN1CCC(O)(C(CN2CCNCC2)c2ccc(Cl)c(Cl)c2)CC1 (stereo not shown) [Example 37, 4-[1-(3,4-dichlorophenyl)-2-piperazin-1-ylethyl]-1-methylpiperidin-4-ol trihydrochloride]
14 | 16 | CN1CCN(CC(c2cccc(Cl)c2)C(O)(C2CC2)C2CC2)CC1 (stereo not shown) [Example 86, 2-(3-chlorophenyl)-1,1-dicyclopropyl-3-(4-methylpiperazin-1-yl)propan-1-ol dihydrochloride]
15 | 37 | CCC(O)(CC)C(CN1CCNCC1)c1cccc(Cl)c1 (stereo not shown) [Example 52, 2-(3-chlorophenyl)-3-ethyl-1-piperazin-1-ylpentan-3-ol dihydrochloride]
16 | 20 | CN1CCN(CC(c2cccc(Br)c2)C2(O)CCC(C(C)(C)C)CC2)CC1 (stereo not shown) [Example 79, 1-[1-(3-bromophenyl)-2-(4-methylpiperazin-1-yl)ethyl]4-tert-butylcyclohexanol dihydrochloride]
17 | 12 | CCC(O)(CC)C(CN1CCNCC1)c1ccc(OC)c(Br)c1 (stereo not shown) [Example 65, 2-(3-bromo-4-methoxyphenyl)-3-ethyl-1-piperazin-1-ylpentan-3-ol dihydrochloride]
18 | 67.7 | Clc1cccc(C(CN2CCNCC2)C2CCCCCC2)c1 (stereo not shown) [Example 234, 1-[2-(3-chlorophenyl)-2-cycloheptylethyl]piperazine dihydrochloride]
19 | 26 | CCC(O)(CC)C(CN1CCN(C)CC1)c1ccc(OC)c(Br)c1 (stereo not shown) [Example 66, 2-(3-bromo-4-methoxyphenyl)-3-ethyl-1-(4-methylpiperazin-1-yl)pentan-3-ol dihydrochloride]
20 | 29 | CCC1CCC(O)(C(CN2CCN(C)CC2)c2cccc(Cl)c2)CC1 (stereo not shown) [Example 336, 1-[1-(3-chlorophenyl)-2-(4-methylpiperazin-1-yl)ethyl]-4-ethylcyclohexanol dihydrochloride]
21 | 24 | OC1(C(CN2CCNCC2)c2cccc(Cl)c2)CCC2CCCCC2C1 (stereo not shown) [Example 74, 2-[1-(3-chlorophenyl)-2-piperazin-1-ylethyl]decahydronaphthalen-2-ol dihydrochloride]
22 | 19 | CCCC(O)(CCC)C(CN1CCN(C)CC1)c1cccc(Br)c1 (stereo not shown) [Example 82, 4-[1-(3-bromophenyl)-2-(4-methylpiperazin-1-yl)ethyl]heptan-4-ol dihydrochloride]
23 | 12 | CC(C)(C)C1CCC(O)(C(CN2CCNCC2)c2cccc(Cl)c2)CC1 (stereo not shown) [Example 93, 4-tert-butyl-1-[1-(3-chlorophenyl)-2-piperazin-1-ylethyl]cyclohexanol dihydrochloride]
24 | 91.2 | CN1CCN(CC(c2cccc(Cl)c2)C2CCCCC2)CC1 (stereo not shown) [Example 231, 1-[2-(3-chlorophenyl)-2-cyclohexylethyl]-4-methylpiperazine dihydrochloride]
25 | 25 | COc1ccc(C(CN2CCN(C)CC2)C2(O)CCC(C(C)(C)C)CC2)cc1Br (stereo not shown) [Example 73, 1-[1-(3-bromo-4-methoxyphenyl)-2-(4-methylpiperazin-1-yl)ethyl]-4-tert-butylcyclohexano dihydrochloride]
26 | 16 | CN1CCN(CC(c2cccc(Br)c2)C2(O)CC(C)(C)CC(C)(C)C2)CC1 (stereo not shown) [Example 88, 1-[1-(3-bromophenyl)-2-(4-methylpiperazin-1-yl)ethyl]-3,3,5,5-tetramethylcyclohexanol dihydrochloride]
27 | 25 | OC1(C(CN2CCNCC2)c2cccc(Cl)c2)CCCC2CCCCC21 (stereo not shown) [Example 72, 1-[1-(3-chlorophenyl)-2-piperazin-1-ylethyl]decahydronaphthalen-1-ol dihydrochloride]

Row | SMILES | inhibition at 1 µM [%]
28 | CN1CCN(CC(c2cccc(Cl)c2)C2(O)CC(C)(C)CC(C)(C)C2)CC1 (stereo not shown) [Example 278, 1-[1-(3-chlorophenyl)-2-(4-methylpiperazin-1-yl)ethyl]-3,3,5,5-tetramethylcyclohexanol dihydrochloride] | 25
29 | CC1(C)CC(C)(C)CC(O)(C(CN2CCNCC2)c2cccc(Cl)c2)C1 (stereo not shown) [Example 277, 1-[1-(3-chlorophenyl)-2-piperazin-1-ylethyl]-3,3,5,5-tetramethylcyclohexanol dihydrochloride] | 17

Same assay, conditions: at 10 μM test compound, [3H]NE uptake

Row | inhibition at 10 µM [%] | SMILES
30 | 11.4 | CN1CCN(CC(c2cccc(Cl)c2)C2(O)CCCC3CCCCC32)CC1 (stereo not shown) [Example 331, 1-[1-(3-chlorophenyl)-2-(4-methylpiperazin-1-yl)ethyl]decahydronaphthalen-1-ol dihydrochloride]
31 | 20.9 | OC1(C(CN2CCNCC2)c2cccc3ccccc23)CCC2CCCCC2C1 (stereo not shown) [Example 329, 2-[1-(1-naphthyl)-2-piperazin-1-ylethyl]decahydronaphthalen-2-ol dihydrochloride]
